From US8969325B2, “TRPV1 antagonists” (AbbVie Inc., priority 2011, dated 2015) come the findings set out here.

The structures appear in SMILES notation. Where only a bound is given, the exact number is not on record here.

Assay [1] concerns the target T1, human TRPV1 (Homo sapiens (Human), UniProt Q8NER1). Nature of the assay: Acid Activation Assay (pH 5.0, intracellular Ca2+, FLIPR). The format is cell-based. As to conditions: percentage of the maximal pH 5.0-induced response remaining; recombinant HEK293 hTRPV1 cells; maximum concentration tested 37.5 μM. The essentials:
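Readout: peak [Ca2+]i fluorescence over baseline on FLIPR, expressed as percentage remaining of the maximal pH 5.0-evoked signal. Stable hTRPV1-HEK293 cells with Calcium-4 dye received compound (12 half-log concentrations, maximum 37.5 μM) 3 min before acidic pH 5.0 buffer.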

In assay [2] the target is T1, human TRPV1. The assay is described as follows: Capsaicin Activation Assay (intracellular Ca2+, FLIPR). It counts as cell-based. As to conditions: recombinant HEK293 cells expressing hTRPV1, 50 nM capsaicin. The essentials:
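Ca2+ fluorescence was recorded by FLIPR every 1 to 5 seconds in HEK293 cells, clonally selected for stable human TRPV1 expression and plated one day ahead. Test compounds came as serial dilutions of 10 mM DMSO stocks.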

T1 sequence (Q8NER1 whole entry): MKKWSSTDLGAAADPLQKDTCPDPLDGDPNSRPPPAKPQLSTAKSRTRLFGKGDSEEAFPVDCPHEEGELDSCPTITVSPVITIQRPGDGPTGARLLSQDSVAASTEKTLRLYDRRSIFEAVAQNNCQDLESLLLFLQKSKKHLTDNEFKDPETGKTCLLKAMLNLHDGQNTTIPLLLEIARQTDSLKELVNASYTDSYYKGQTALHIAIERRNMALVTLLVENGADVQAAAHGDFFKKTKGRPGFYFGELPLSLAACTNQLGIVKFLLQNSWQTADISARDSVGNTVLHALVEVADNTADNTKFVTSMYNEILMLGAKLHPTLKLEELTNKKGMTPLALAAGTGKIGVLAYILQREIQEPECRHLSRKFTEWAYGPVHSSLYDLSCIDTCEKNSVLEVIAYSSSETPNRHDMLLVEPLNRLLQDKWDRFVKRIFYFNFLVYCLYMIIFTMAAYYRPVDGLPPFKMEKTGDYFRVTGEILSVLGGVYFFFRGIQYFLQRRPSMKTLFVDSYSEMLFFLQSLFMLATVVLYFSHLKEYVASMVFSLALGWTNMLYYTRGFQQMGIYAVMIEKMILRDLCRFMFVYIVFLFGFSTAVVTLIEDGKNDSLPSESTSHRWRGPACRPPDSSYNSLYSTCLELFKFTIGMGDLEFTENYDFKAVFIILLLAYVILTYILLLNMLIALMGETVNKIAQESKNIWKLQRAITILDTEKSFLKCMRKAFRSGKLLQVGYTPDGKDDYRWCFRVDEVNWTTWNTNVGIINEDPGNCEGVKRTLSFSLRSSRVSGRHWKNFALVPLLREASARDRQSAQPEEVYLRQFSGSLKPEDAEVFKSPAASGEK

`O=C1CCc2ccc(NC(=O)N[C@@H]3CCOc4c3cccc4C(F)(F)F)cc2N1` [Example 238, 1-(2-oxo-1,2,3,4-tetrahydroquinolin-7-yl)-3-[(4R)-8-(trifluoromethyl)-3,4-dihydro-2H-chromen-4-yl]urea]: the “human TRPV1 H^+ (max % remain)” value in assay [1] is 47%. Moreover, the IC50 in assay [2] was determined as 510 nM.

For `O=C1COc2ccc(NC(=O)N[C@@H]3CCOc4cc(OC(F)(F)F)ccc43)cc2N1` [Example 115, 1-(3-oxo-3,4-dihydro-2H-1,4-benzoxazin-6-yl)-3-[(4R)-7-(trifluoromethoxy)-3,4-dihydro-2H-chromen-4-yl]urea], in assay [1], the “human TRPV1 H^+ (max % remain)” value was determined as 91%. Moreover, the IC50 in assay [2] is more than 38000 nM.

As for `CCC1(CC)C[C@@H](NC(=O)Nc2ccc3c(c2)N(C)C(=O)CC3)c2ccc(OC(F)(F)F)cc2O1` [Example 272, 1-[(4R)-2,2-diethyl-7-(trifluoromethoxy)-3,4-dihydro-2H-chromen-4-yl]-3-(1-methyl-2-oxo-1,2,3,4-tetrahydroquinolin-7-yl)urea], the “human TRPV1 H^+ (max % remain)” value in assay [1] is on record as 101%. Further, the half-maximal inhibitory concentration (IC50) in assay [2] was found to be 180 nM.

Take `CN1Cc2ccc(NC(=O)N[C@@H]3CCOc4ccccc43)cc2NC1=O` [Example 175, 1-[(4R)-3,4-dihydro-2H-chromen-4-yl]-3-(3-methyl-2-oxo-1,2,3,4-tetrahydroquinazolin-7-yl)urea]: in assay [1], the “human TRPV1 H^+ (max % remain)” value is listed as 62%. The concentration for half-maximal inhibition (IC50) in assay [2] came out at 4100 nM.

Take `CCC1(CC)C[C@@H](NC(=O)Nc2cccc3c2ccc(=O)n3C)c2ccc(OC(F)(F)F)cc2O1` [Example 76, 1-[(4R)-2,2-diethyl-7-(trifluoromethoxy)-3,4-dihydro-2H-chromen-4-yl]-3-(1-methyl-2-oxo-1,2-dihydroquinolin-5-yl)urea]: in assay [1], the “human TRPV1 H^+ (max % remain)” value worked out at 17%. Besides, the IC50 in assay [2] worked out at 32 nM.

Take `CN1Cc2ccc(NC(=O)N[C@@H]3CCOc4cc(C(F)(F)F)ccc43)cc2NC1=O` [Example 201, 1-(3-methyl-2-oxo-1,2,3,4-tetrahydroquinazolin-7-yl)-3-[(4R)-7-(trifluoromethyl)-3,4-dihydro-2H-chromen-4-yl]urea]: in assay [1], the “human TRPV1 H^+ (max % remain)” value amounted to 45%. In addition, the IC50 in assay [2] worked out at 130 nM.

For the molecule `CN1Cc2ccc(NC(=O)N[C@H]3CC4(CCC4)Oc4ccc(F)cc43)cc2NC1=O` [Example 203, 1-[(4S)-6-fluoro-3,4-dihydrospiro[chromene-2,1′-cyclobutan]-4-yl]-3-(3-methyl-2-oxo-1,2,3,4-tetrahydroquinazolin-7-yl)urea], in assay [1], the “human TRPV1 H^+ (max % remain)” value was 64%. In assay [2], the half-inhibitory concentration (IC50) was 28000 nM.

Consider `CN1Cc2ccc(NC(=O)N[C@@H]3CCOc4cc(OC(F)(F)F)ccc43)cc2NC1=O` [Example 195, 1-(3-methyl-2-oxo-1,2,3,4-tetrahydroquinazolin-7-yl)-3-[(4R)-7-(trifluoromethoxy)-3,4-dihydro-2H-chromen-4-yl]urea], for which, in assay [1], the “human TRPV1 H^+ (max % remain)” value is 49%. In addition, in assay [2], the IC50 was 280 nM.

For the molecule `CC1(C)C[C@@H](NC(=O)Nc2ccc3c(c2)NC(=O)N(CCO)C3)c2cccc(C(F)(F)F)c2O1` [Example 307, 1-[(4R)-2,2-dimethyl-8-(trifluoromethyl)-3,4-dihydro-2H-chromen-4-yl]-3-[3-(2-hydroxyethyl)-2-oxo-1,2,3,4-tetrahydroquinazolin-7-yl]urea], the “human TRPV1 H^+ (max % remain)” value in assay [1] came to 37%. Moreover, the IC50 in assay [2] stood at 1300 nM.

For the molecule `O=C1CCc2ccc(NC(=O)N[C@@H]3CC4(CCC4)Oc4ccc(F)cc43)cc2N1` [Example 228, 1-[(4R)-6-fluoro-3,4-dihydrospiro[chromene-2,1′-cyclobutan]-4-yl]-3-(2-oxo-1,2,3,4-tetrahydroquinolin-7-yl)urea], in assay [1], the “human TRPV1 H^+ (max % remain)” value turned out to be 57%. Further, in assay [2], the IC50 is 120 nM.

With `CN1C(=O)CCc2ccc(NC(=O)N[C@@H]3CC4(CCCC4)Oc4ccccc43)cc21` [Example 288, 1-[(4R)-3,4-dihydrospiro[chromene-2,1′-cyclopentan]-4-yl]-3-(1-methyl-2-oxo-1,2,3,4-tetrahydroquinolin-7-yl)urea], in assay [1], the “human TRPV1 H^+ (max % remain)” value is listed as 75%. Also, the half-inhibitory concentration (IC50) in assay [2] turned out to be 10000 nM.

`O=C(Nc1ccc2c(c1)NC(=O)N(CCO)C2)N[C@@H]1CCc2cc(F)ccc21` [Example 55, 1-[(1R)-5-fluoro-2,3-dihydro-1H-inden-1-yl]-3-[3-(2-hydroxyethyl)-2-oxo-1,2,3,4-tetrahydroquinazolin-7-yl]urea]: in assay [1], the “human TRPV1 H^+ (max % remain)” value is listed as 36%. The half-maximal inhibitory concentration (IC50) in assay [2] amounted to 7300 nM.

With `CC1(C)C[C@@H](NC(=O)Nc2ccc3c(c2)NC(=O)C(N2CCOCC2)C3)c2ccc(F)cc2O1` (stereo partly drawn) [Example 301, 1-[(4R)-7-fluoro-2,2-dimethyl-3,4-dihydro-2H-chromen-4-yl]-3-[3-(morpholin-4-yl)-2-oxo-1,2,3,4-tetrahydroquinolin-7-yl]urea], the “human TRPV1 H^+ (max % remain)” value in assay [1] is 60%. In assay [2], the IC50 came out at 1300 nM.

As for `Cn1c(=O)ccc2c(NC(=O)N[C@H]3CC4(CCC4)Oc4ccc(F)cc43)cccc21` [Example 88, 1-[(4S)-6-fluoro-3,4-dihydrospiro[chromene-2,1′-cyclobutan]-4-yl]-3-(1-methyl-2-oxo-1,2-dihydroquinolin-5-yl)urea], in assay [1], the “human TRPV1 H^+ (max % remain)” value is listed as 51%. Moreover, the IC50 in assay [2] is 2500 nM.

For the molecule `CN1Cc2ccc(NC(=O)N[C@@H]3CCc4cc(C(F)(F)F)ccc43)cc2NC1=O` [Example 174, 1-(3-methyl-2-oxo-1,2,3,4-tetrahydroquinazolin-7-yl)-3-[(1R)-5-(trifluoromethyl)-2,3-dihydro-1H-inden-1-yl]urea], the “human TRPV1 H^+ (max % remain)” value in assay [1] is listed as 52%. In addition, the IC50 in assay [2] stood at 130 nM.

As to `CCCC1(CCC)C[C@@H](NC(=O)Nc2ccc3c(c2)NC(=O)CC3)c2cc(F)ccc2O1` [Example 227, 1-[(4R)-6-fluoro-2,2-dipropyl-3,4-dihydro-2H-chromen-4-yl]-3-(2-oxo-1,2,3,4-tetrahydroquinolin-7-yl)urea], the “human TRPV1 H^+ (max % remain)” value in assay [1] stood at 19%. In addition, the IC50 in assay [2] was determined as 220 nM.

Consider `C[C@@]1(CF)C[C@@H](NC(=O)Nc2ccc3c(c2)NC(=O)CO3)c2ccc(Cl)cc2O1` [Example 129, 1-[(2S,4R)-7-chloro-2-(fluoromethyl)-2-methyl-3,4-dihydro-2H-chromen-4-yl]-3-(3-oxo-3,4-dihydro-2H-1,4-benzoxazin-6-yl)urea], for which the “human TRPV1 H^+ (max % remain)” value in assay [1] was found to be 97%. Also, the 50% inhibitory concentration (IC50) in assay [2] is 120 nM.

Regarding `CCC1(CC)C[C@@H](NC(=O)Nc2ccc3c(c2)N(C)C(=O)CC3)c2ccc(Cl)cc2O1` [Example 262, 1-[(4R)-7-chloro-2,2-diethyl-3,4-dihydro-2H-chromen-4-yl]-3-(1-methyl-2-oxo-1,2,3,4-tetrahydroquinolin-7-yl)urea], the “human TRPV1 H^+ (max % remain)” value in assay [1] was 37%. For the same molecule, the half-inhibitory concentration (IC50) in assay [2] turned out to be 460 nM.

As for `O=C(Nc1ccc2c(c1)NC(=O)N(CCO)C2)N[C@@H]1CC(CF)(CF)Oc2c(F)cccc21` [Example 315, 1-[(4R)-8-fluoro-2,2-bis(fluoromethyl)-3,4-dihydro-2H-chromen-4-yl]-3-[3-(2-hydroxyethyl)-2-oxo-1,2,3,4-tetrahydroquinazolin-7-yl]urea], in assay [1], the “human TRPV1 H^+ (max % remain)” value is on record as 18%. Moreover, the IC50 in assay [2] stood at 830 nM.

Turning to `CN1C(=O)CCc2ccc(NC(=O)N[C@@H]3CC(CF)(CF)Oc4ccc(F)cc43)cc21` [Example 267, 1-[(4R)-6-fluoro-2,2-bis(fluoromethyl)-3,4-dihydro-2H-chromen-4-yl]-3-(1-methyl-2-oxo-1,2,3,4-tetrahydroquinolin-7-yl)urea], in assay [1], the “human TRPV1 H^+ (max % remain)” value stood at 63%. For the same molecule, the concentration for half-maximal inhibition (IC50) in assay [2] amounted to 380 nM.

`O=C(Nc1ccc2c(c1)NC(=O)C(N1CCCOCC1)C2)N[C@@H]1CC(CF)(CF)Oc2cc(Cl)ccc21` (stereo partly drawn) [Example 302, 1-[(4R)-7-chloro-2,2-bis(fluoromethyl)-3,4-dihydro-2H-chromen-4-yl]-3-[3-(1,4-oxazepan-4-yl)-2-oxo-1,2,3,4-tetrahydroquinolin-7-yl]urea]: the “human TRPV1 H^+ (max % remain)” value in assay [1] is given as 36%. For the same molecule, in assay [2], the half-inhibitory concentration (IC50) turned out to be 200 nM.

Take `COCC1(COC)C[C@@H](NC(=O)Nc2cccc3c2ccc(=O)n3C)c2cc(F)ccc2O1` [Example 79, 1-[(4R)-6-fluoro-2,2-bis(methoxymethyl)-3,4-dihydro-2H-chromen-4-yl]-3-(1-methyl-2-oxo-1,2-dihydroquinolin-5-yl)urea]: the “human TRPV1 H^+ (max % remain)” value in assay [1] turned out to be 46%. Besides, in assay [2], the half-maximal inhibitory concentration (IC50) worked out at 260 nM.

Regarding `CCCC1(CCC)C[C@@H](NC(=O)Nc2cccc3c2ccc(=O)n3C)c2cccc(F)c2O1` [Example 75, 1-[(4R)-8-fluoro-2,2-dipropyl-3,4-dihydro-2H-chromen-4-yl]-3-(1-methyl-2-oxo-1,2-dihydroquinolin-5-yl)urea], the “human TRPV1 H^+ (max % remain)” value in assay [1] is listed as 50%. In addition, the half-maximal inhibitory concentration (IC50) in assay [2] was found to be 24 nM.

For the molecule `C[C@H]1Oc2c(NC(=O)N[C@@H]3CC(CF)(CF)Oc4cc(Cl)ccc43)cccc2NC1=O` [Example 134, 1-[(4R)-7-chloro-2,2-bis(fluoromethyl)-3,4-dihydro-2H-chromen-4-yl]-3-[(2R)-2-methyl-3-oxo-3,4-dihydro-2H-1,4-benzoxazin-8-yl]urea], the “human TRPV1 H^+ (max % remain)” value in assay [1] is given as 0%. In assay [2], the concentration for half-maximal inhibition (IC50) is 8 nM.

As to `C[C@@]1(C(F)F)C[C@@H](NC(=O)Nc2ccc3c(c2)NC(=O)CO3)c2ccccc2O1` [Example 130, 1-[(2S,4R)-2-(difluoromethyl)-2-methyl-3,4-dihydro-2H-chromen-4-yl]-3-(3-oxo-3,4-dihydro-2H-1,4-benzoxazin-6-yl)urea], in assay [1], the “human TRPV1 H^+ (max % remain)” value turned out to be 98%. For the same molecule, the IC50 in assay [2] is 1000 nM.
